Target: T1, hQ23 (HEK-293 cell line stably transfected with one of the members of the KCNQ family) (Homo sapiens, UniProt O43525+O43526)
T1 construct: expressed in transfected cells; host or cells: HEK-293, stably transfected
Assay: Thallium flux assay for KCNQ channel blockers (FLIPR, BTC dye)
Assay type: cell-based
Details: Table 2; thallium flux, HEK-293
How it was run: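 FLIPR thallium flux readout (BTC dye, 2 μM AM ester) in stably transfected KCNQ HEK-293 cells, chloride-free HEPES buffer pH 7.3, Tl2SO4 stimulus. IC50s were fitted with a single-site logistic equation across 10 points at 1:3 dilutions, defined as 50% of positive-control block; minimal active concentration meant signal ≥4 SD over DMSO controls.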

T1 sequence (O43526 whole entry): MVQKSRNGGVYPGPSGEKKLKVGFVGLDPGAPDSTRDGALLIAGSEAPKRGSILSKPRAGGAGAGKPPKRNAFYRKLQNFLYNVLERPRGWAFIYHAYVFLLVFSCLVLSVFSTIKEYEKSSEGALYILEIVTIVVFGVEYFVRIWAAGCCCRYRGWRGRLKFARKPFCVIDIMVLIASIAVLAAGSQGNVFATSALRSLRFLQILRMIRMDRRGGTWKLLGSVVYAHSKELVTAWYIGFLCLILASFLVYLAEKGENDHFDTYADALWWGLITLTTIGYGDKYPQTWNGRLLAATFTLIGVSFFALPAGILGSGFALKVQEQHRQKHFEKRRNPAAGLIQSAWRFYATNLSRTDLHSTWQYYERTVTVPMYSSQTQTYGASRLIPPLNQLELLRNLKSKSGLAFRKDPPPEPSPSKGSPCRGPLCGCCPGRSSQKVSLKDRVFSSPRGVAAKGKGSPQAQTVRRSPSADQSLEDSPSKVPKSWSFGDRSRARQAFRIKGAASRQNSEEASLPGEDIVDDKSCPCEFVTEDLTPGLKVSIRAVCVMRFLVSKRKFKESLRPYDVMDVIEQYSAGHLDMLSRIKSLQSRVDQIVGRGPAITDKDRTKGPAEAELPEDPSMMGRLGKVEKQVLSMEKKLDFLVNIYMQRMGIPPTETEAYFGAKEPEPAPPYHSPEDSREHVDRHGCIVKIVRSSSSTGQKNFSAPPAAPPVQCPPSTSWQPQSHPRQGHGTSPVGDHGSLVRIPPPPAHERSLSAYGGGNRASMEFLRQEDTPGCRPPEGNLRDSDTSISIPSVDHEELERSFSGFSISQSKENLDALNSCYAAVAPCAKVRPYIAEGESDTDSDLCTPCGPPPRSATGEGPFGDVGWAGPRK
T1 sequence (O43525 whole entry): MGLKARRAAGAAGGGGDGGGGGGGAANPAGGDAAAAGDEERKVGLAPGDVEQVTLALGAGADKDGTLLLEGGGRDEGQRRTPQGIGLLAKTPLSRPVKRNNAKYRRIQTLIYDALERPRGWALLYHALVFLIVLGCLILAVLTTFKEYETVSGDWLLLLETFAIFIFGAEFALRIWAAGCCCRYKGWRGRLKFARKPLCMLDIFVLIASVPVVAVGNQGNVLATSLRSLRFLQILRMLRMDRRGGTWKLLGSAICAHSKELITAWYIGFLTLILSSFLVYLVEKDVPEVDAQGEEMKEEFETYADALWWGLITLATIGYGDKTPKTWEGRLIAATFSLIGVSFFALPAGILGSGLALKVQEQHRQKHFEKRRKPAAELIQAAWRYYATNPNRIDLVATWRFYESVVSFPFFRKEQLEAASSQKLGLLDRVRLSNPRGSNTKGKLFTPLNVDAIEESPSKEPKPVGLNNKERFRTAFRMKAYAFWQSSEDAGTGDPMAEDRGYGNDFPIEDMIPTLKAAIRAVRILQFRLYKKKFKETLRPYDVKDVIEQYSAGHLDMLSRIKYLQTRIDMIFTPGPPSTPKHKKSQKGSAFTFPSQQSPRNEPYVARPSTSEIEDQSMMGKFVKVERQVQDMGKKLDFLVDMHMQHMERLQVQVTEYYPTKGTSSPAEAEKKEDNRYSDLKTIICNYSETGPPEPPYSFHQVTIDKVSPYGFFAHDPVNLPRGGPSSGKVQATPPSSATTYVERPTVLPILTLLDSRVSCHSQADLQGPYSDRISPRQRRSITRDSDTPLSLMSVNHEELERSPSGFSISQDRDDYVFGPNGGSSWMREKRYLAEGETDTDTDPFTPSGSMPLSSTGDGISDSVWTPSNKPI

First: CN1CCN(c2ncc(C(=O)NCc3cc(F)cc(C(F)(F)F)c3)c(C3(c4ccccc4)CC3)n2)CC1 [Example 46, 5-pyrimidinecarboxamide, N-[[3-fluoro-5-(trifluoromethyl)phenyl]methyl]-2-(4-methyl-1-piperazinyl)-4-(1-phenylcyclopropyl)-]
Second: O=C(NCc1cc(F)cc(C(F)(F)F)c1)c1cnc(N2CCCC2)nc1C1(c2ccccc2)CC1 [Example 45, 5-pyrimidinecarboxamide, N-[[3-fluoro-5-(trifluoromethyl)phenyl]methyl]-4-(1-phenylcyclopropyl)-2-(1-pyrrolidinyl)-]
The EC50 of the first is 1.8-fold higher: 384 nM for the first, 209 nM for the second.

CCN(C(=O)c1cnc(N2CCN(C)CC2)nc1C1(c2ccccc2)CC1)C1CCCCC1 [Example 27, 5-pyrimidinecarboxamide, N-cyclohexyl-N-ethyl-2-(4-methyl-1-piperazinyl)-4-(1-phenylcyclopropyl)-] and CC1CCC(Nc2ncc(C(=O)NCc3ccc(F)cc3F)c(C3(c4ccccc4)CC3)n2)CC1 (stereo not shown) [Example 42, 5-pyrimidinecarboxamide, N-[(2,4-difluorophenyl)methyl]-2-[(4-methylcyclohexyl)amino]-4-(1-phenylcyclopropyl)-] are within 1.5-fold of each other in EC50: 470 nM for the first, 413 nM for the second.

Same assay, conditions: Table 3; thallium flux, HEK-293

First: CC1CCCN(c2ncc(C(=O)NCc3cc(F)cc(C(F)(F)F)c3)c(C3(c4ccc(Cl)cc4)CCC3)n2)C1 (stereo not shown) [Example 66, 5-pyrimidinecarboxamide, 4-[1-(4-chlorophenyl)cyclobutyl]-N-[[3-fluoro-5-(trifluoromethyl)phenyl]methyl]-2-(3-methyl-1-piperidinyl)-]
Second: O=C(NCc1ccc2c(c1)OCO2)c1cnc(N2CCCC2)nc1C1(c2ccc(Cl)cc2)CCC1 [Example 56, 5-pyrimidinecarboxamide, N-(1,3-benzodioxol-5-ylmethyl)-4-[1-(4-chlorophenyl)cyclobutyl]-2-(1-pyrrolidinyl)-]
The EC50 of the first is 72-fold lower: 10 nM for the first, 719 nM for the second.

For CN(C)CCNc1ncc(C(=O)N2CCc3ccccc3C2)c(C2(c3ccc(Cl)cc3)CCC2)n1 [Example 54, isoquinoline, 2-[[4-[1-(4-chlorophenyl)cyclobutyl]-2-[[2-(dimethylamino)ethyl]amino]-5-pyrimidinyl]carbonyl]-1,2,3,4-tetrahydro-], the EC50 was 475 nM.

Same assay, conditions: hQ23 cells, thallium flux

First: CC1CCC(Nc2ncc(C(=O)NC(C)c3cccc4ccccc34)c(C3(c4ccccc4)CCCC3)n2)CC1 (stereo not shown) [Example 95, 5-pyrimidinecarboxamide, 2-[(4-methylcyclohexyl)amino]-N-[1-(1-naphthalenyl)ethyl]-4-(1-phenylcyclopentyl)-]
Second: CC1CCC(Nc2ncc(C(=O)NCc3ccc4c(c3)OCO4)c(C3(c4ccccc4)CCCC3)n2)CC1 (stereo not shown) [Example 90, 5-pyrimidinecarboxamide, N-(1,3-benzodioxol-5-ylmethyl)-2-[(4-methylcyclohexyl)amino]-4-(1-phenylcyclopentyl)-]
The EC50 of the first is 3.4-fold lower: 64 nM for the first, 220 nM for the second.

Going from CC1CCCN(c2ncc(C(=O)NCc3ccc(Cl)c(Cl)c3)c(C3(c4ccc(Cl)cc4)CCCC3)n2)C1 (stereo not shown) [Example 174, 5-pyrimidinecarboxamide, 4-[1-(4-chlorophenyl)cyclopentyl]-N-[(3,4-dichlorophenyl)methyl]-2-(3-methyl-1-piperidinyl)-] to CC1CCCN(c2ncc(C(=O)NCc3ccc(F)cc3F)c(C3(c4ccc(Cl)cc4)CCCC3)n2)C1 (stereo not shown) [Example 187, 5-pyrimidinecarboxamide, 4-[1-(4-chlorophenyl)cyclopentyl]-N-[(2,4-difluorophenyl)methyl]-2-(3-methyl-1-piperidinyl)-], the EC50 rises from 10 nM to 95 nM (9.5-fold). The first is the more potent here.

First: CCC(C)Nc1ncc(C(=O)NCc2cc(F)cc(C(F)(F)F)c2)c(C2(c3ccccc3)CCCC2)n1 (stereo not shown) [Example 128, 5-pyrimidinecarboxamide, N-[[3-fluoro-5-(trifluoromethyl)phenyl]methyl]-2-[(1-methylpropyl)amino]-4-(1-phenylcyclopentyl)-]
Second: CN1CCN(c2ncc(C(=O)NCc3cc(F)cc(C(F)(F)F)c3)c(C3(c4ccccc4)CCCC3)n2)CC1 [Example 125, 5-pyrimidinecarboxamide, N-[[3-fluoro-5-(trifluoromethyl)phenyl]methyl]-2-(4-methyl-1-piperazinyl)-4-(1-phenylcyclopentyl)-]
The EC50 of the first is 38-fold lower: 10 nM for the first, 375 nM for the second. The first is the more potent here.

First: CN1CCC(N(C)c2ncc(C(=O)NCc3ccc(Cl)cc3Cl)c(C3(c4ccc(Cl)cc4)CCCC3)n2)CC1 [Example 182, 5-pyrimidinecarboxamide, 4-[1-(4-chlorophenyl)cyclopentyl]-N-[(2,4-dichlorophenyl)methyl]-2-[methyl(1-methyl-4-piperidinyl)amino]-]
Second: CC1CCC(Nc2ncc(C(=O)NCc3ccc(F)cc3F)c(C3(c4ccc(Cl)cc4)CCCC3)n2)CC1 (stereo not shown) [Example 186, 5-pyrimidinecarboxamide, 4-[1-(4-chlorophenyl)cyclopentyl]-N-[(2,4-difluorophenyl)methyl]-2-[(4-methylcyclohexyl)amino]-]
The EC50 of the first is 1.9-fold lower: 67 nM for the first, 128 nM for the second.

CC1CCCN(c2ncc(C(=O)N(C)Cc3ccccc3)c(C3(c4ccc(F)cc4)CCCC3)n2)C1 (stereo not shown) [Example 205, 5-pyrimidinecarboxamide, 4-[1-(4-fluorophenyl)cyclopentyl]-N-methyl-2-(3-methyl-1-piperidinyl)-N-(phenylmethyl)-] and CN(CCc1ccccc1)C(=O)c1cnc(N2CCCC2)nc1C1(c2ccc(F)cc2)CCCC1 [Example 220, 5-pyrimidinecarboxamide, 4-[1-(4-fluorophenyl)cyclopentyl]-N-methyl-N-(2-phenylethyl)-2-(1-pyrrolidinyl)-] are within 1.5-fold of each other in EC50: 116 nM for the first, 169 nM for the second.

Compared with CC1CCN(c2ncc(C(=O)NC(C)c3ccc(F)cc3)c(C3(c4ccccc4)CCCC3)n2)CC1 (stereo not shown) [Example 134, 5-pyrimidinecarboxamide, N-[1-(4-fluorophenyl)ethyl]-2-(4-methyl-1-piperidinyl)-4-(1-phenylcyclopentyl)-], CC1CCN(c2ncc(C(=O)N3CCc4ccccc4C3)c(C3(c4ccc(F)cc4)CCCC3)n2)CC1 [Example 212, isoquinoline, 2-[[4-[1-(4-fluorophenyl)cyclopentyl]-2-(4-methyl-1-piperidinyl)-5-pyrimidinyl]carbonyl]-1,2,3,4-tetrahydro-] is 2.4-fold higher in EC50: 98 nM for the first, 237 nM for the second. The first is the more potent here.

CCN(C(=O)c1cnc(N2CCCC2)nc1C1(c2ccc(F)cc2)CCCC1)C1CCCCC1 [Example 213, 5-pyrimidinecarboxamide, N-cyclohexyl-N-ethyl-4-[1-(4-fluorophenyl)cyclopentyl]-2-(1-pyrrolidinyl)-] and CC1CCN(c2ncc(C(=O)N(C)C3CCCCC3)c(C3(c4ccc(F)cc4)CCCC3)n2)CC1 [Example 208, 5-pyrimidinecarboxamide, N-cyclohexyl-4-[1-(4-fluorophenyl)cyclopentyl]-N-methyl-2-(4-methyl-1-piperidinyl)-] are within 1.5-fold of each other in EC50: 680 nM for the first, 558 nM for the second.

CCC(C)Nc1ncc(C(=O)NC(C)c2cccc3ccccc23)c(C2(c3ccc(Cl)cc3)CCCC2)n1 (stereo not shown) [Example 162, 5-pyrimidinecarboxamide, 4-[1-(4-chlorophenyl)cyclopentyl]-2-[(1-methylpropyl)amino]-N-[1-(1-naphthalenyl)ethyl]-] and CCC(C)Nc1ncc(C(=O)NCc2cccc3ccccc23)c(C2(c3ccc(Cl)cc3)CCCC2)n1 (stereo not shown) [Example 171, 5-pyrimidinecarboxamide, 4-[1-(4-chlorophenyl)cyclopentyl]-2-[(1-methylpropyl)amino]-N-(1-naphthalenylmethyl)-] are within 1.5-fold of each other in EC50: 113 nM for the first, 158 nM for the second.

Compared with O=C(NCc1ccc(Cl)cc1Cl)c1cnc(NC2CC2)nc1C1(c2ccccc2)CCCC1 [Example 109, 5-pyrimidinecarboxamide, 2-(cyclopropylamino)-N-[(2,4-dichlorophenyl)methyl]-4-(1-phenylcyclopentyl)-], CC1CCCN(c2ncc(C(=O)NCc3cccc4ccccc34)c(C3(c4ccccc4)CCCC3)n2)C1 (stereo not shown) [Example 103, 5-pyrimidinecarboxamide, 2-(3-methyl-1-piperidinyl)-N-(1-naphthalenylmethyl)-4-(1-phenylcyclopentyl)-] is 7.6-fold lower in EC50: 504 nM for the first, 66 nM for the second.

O=C(NCc1cc(F)cc(C(F)(F)F)c1)c1cnc(N2CCCC2)nc1C1(c2ccc(Cl)cc2)CCCC1 [Example 191, 5-pyrimidinecarboxamide, 4-[1-(4-chlorophenyl)cyclopentyl]-N-[[3-fluoro-5-(trifluoromethyl)phenyl]methyl]-2-(1-pyrrolidinyl)-] and CC1CCN(c2ncc(C(=O)NCc3ccc(C(F)(F)F)cc3)c(C3(c4ccc(Cl)cc4)CCCC3)n2)CC1 [Example 203, 5-pyrimidinecarboxamide, 4-[1-(4-chlorophenyl)cyclopentyl]-2-(4-methyl-1-piperidinyl)-N-[[4-(trifluoromethyl)phenyl]methyl]-] are the same in EC50: 32 nM for the first, 32 nM for the second.

Same assay, conditions: hQ23 cells, thallium flux assay

Compared with CN1CCN(c2ncc(C(=O)NCc3ccc(Cl)c(Cl)c3)c(C3(c4ccc(F)cc4)CCCC3)n2)CC1 [Example 254, 5-pyrimidinecarboxamide, N-[(3,4-dichlorophenyl)methyl]-4-[1-(4-fluorophenyl)cyclopentyl]-2-(4-methyl-1-piperazinyl)-], CC1CCN(c2ncc(C(=O)NCc3ccc(Cl)c(Cl)c3)c(C3(c4ccc(F)cc4)CCCC3)n2)CC1 [Example 256, 5-pyrimidinecarboxamide, N-[(3,4-dichlorophenyl)methyl]-4-[1-(4-fluorophenyl)cyclopentyl]-2-(4-methyl-1-piperidinyl)-] is 53-fold lower in EC50: 529 nM for the first, 10 nM for the second.

CC1CCN(c2ncc(C(=O)NC(C)c3ccc(F)cc3)c(C3(c4ccc(F)cc4)CCCC3)n2)CC1 (stereo not shown) [Example 285, 5-pyrimidinecarboxamide, 4-[1-(4-fluorophenyl)cyclopentyl]-N-[1-(4-fluorophenyl)ethyl]-2-(4-methyl-1-piperidinyl)-] and O=C(NCc1ccc(F)cc1F)c1cnc(NC2CCCC2)nc1C1(c2ccc(F)cc2)CCCC1 [Example 273, 5-pyrimidinecarboxamide, 2-(cyclopentylamino)-N-[(2,4-difluorophenyl)methyl]-4-[1-(4-fluorophenyl)cyclopentyl]-] are within 1.5-fold of each other in EC50: 95 nM for the first, 115 nM for the second.

— patent US7091202B2, “4-arylspirocycloalkyl-2-aminopyrimidine carboxamide KCNQ potassium channel modulators” (Bristol-Myers Squibb Company, priority 2004, dated 2006)
